Data taken from paper PMC4359714 (Naunyn-Schmiedeberg's Archives of Pharmacology, 2015).

Assays:
rat TRPV3 = target: T1, rat TRPV3 (Rattus norvegicus, UniProt Q4QYD9); experiment: Luminescence (aequorin) readout of intracellular calcium, CHO cells expressing rat TRPV3, 2-APB activation; format: cell-based; conditions: 200 uM 2-APB, read-out: rTRPV3 IC50
T1 construct: expressed in transfected cells; host or cells: CHO, T-REx tetracycline-inducible system (Invitrogen), co-transfected with aequorin
T1 sequence (Q4QYD9 1-791): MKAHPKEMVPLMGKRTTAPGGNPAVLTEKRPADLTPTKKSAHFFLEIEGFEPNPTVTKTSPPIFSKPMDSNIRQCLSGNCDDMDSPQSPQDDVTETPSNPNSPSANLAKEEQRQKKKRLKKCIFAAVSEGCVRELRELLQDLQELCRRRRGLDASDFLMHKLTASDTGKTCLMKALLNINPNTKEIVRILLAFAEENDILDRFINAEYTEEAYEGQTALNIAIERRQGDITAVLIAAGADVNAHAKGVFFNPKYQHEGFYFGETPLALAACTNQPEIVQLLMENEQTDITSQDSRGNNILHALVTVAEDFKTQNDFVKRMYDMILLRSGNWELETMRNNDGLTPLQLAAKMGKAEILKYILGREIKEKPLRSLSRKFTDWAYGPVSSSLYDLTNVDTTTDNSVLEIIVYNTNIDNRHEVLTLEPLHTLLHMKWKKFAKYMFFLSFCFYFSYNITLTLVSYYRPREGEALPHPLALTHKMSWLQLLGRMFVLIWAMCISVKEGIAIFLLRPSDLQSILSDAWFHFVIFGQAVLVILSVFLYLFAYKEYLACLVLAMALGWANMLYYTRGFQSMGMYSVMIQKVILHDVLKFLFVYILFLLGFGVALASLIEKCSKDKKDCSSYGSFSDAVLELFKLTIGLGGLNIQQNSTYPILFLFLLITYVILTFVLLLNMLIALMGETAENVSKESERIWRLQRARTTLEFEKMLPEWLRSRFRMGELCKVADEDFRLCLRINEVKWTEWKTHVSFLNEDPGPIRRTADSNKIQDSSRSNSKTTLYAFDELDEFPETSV
Excerpt: Stable Chinese hamster ovary (CHO) cell lines expressing rat TRPA1, rat TRPM8, rat TRPV3, and human TRPV4 were generated using the tetracycline-inducible T-REx™ expression system from Invitrogen (Carlsbad, CA) and a stable CHO cell line expressing rat TRPV1 was generated using a constitutive expression system (Klionsky et al. [2007]). To enable a luminescence readout based on intracellular increase in calcium (Le Poul et al. [2002]), each cell line was also co-transfected with pcDNA3.1 plasmid containing jelly fish aequorin cDNA. Twenty-four hours before the assay, cells were seeded in 96-well plates and all TRP channel expression, except for TRPV1, was induced with 0.5 ug/mL tetracycline. […] Luminescence was measured by a CCD camera-based FLASH-luminometer built by Amgen, Inc. The following agonists were used to activate TRP channels: 0.5 uM capsaicin for TRPV1, 80 uM allyl isothiocyanate (AITC) for TRPA1, 1 uM icilin or cold buffer (12 °C) for TRPM8, 200 uM aminoethoxydiphenyl borate (2-APB) for TRPV3, and 1 uM 4α-phorbol 12,13-didecanoate (4α-PDD) for TRPV4. Antagonist IC50 values were calculated using GraphPad Prism 4.01 (GraphPad Software Inc, San Diego, CA).

cutaneous C fibers = experiment: Skin-nerve preparation, mechanically induced firing in cutaneous C fibers; parameters: species or system mouse; conditions: 10 μM; sustained force 5-245 mN; compared to vehicle
Excerpt: Adult C57BL/6 mice were obtained from Jackson Laboratories and used for ex vivo skin-nerve preparations. Mice were allowed to acclimate to the animal facility at the Medical College of Wisconsin, an Association for the Assessment and Accreditation of Laboratory Animal […] (AALAC)-accredited facility, for approximately 1 week following shipment. Animals were housed with up to four other cagemates and had ad libitum access to food pellets and hyper-chlorinated water. Mice were housed on a 14:10 h light-dark cycle in cages containing aspen bedding and paper nesting material. Room temperatures averaged 21 °C. Prior to use, animals were briefly anesthetized with inhaled isoflurane and then sacrificed via cervical dislocation.
The mouse saphenous skin-nerve in vitro preparation (Koltzenburg et al. [1997]; Stucky et al. [1999]) was used for electrophysiological recordings of cutaneous terminals of primary afferent fibers in situ. […] Once a unit with a signal to noise ratio >2 was identified, the mechanical threshold was determined using calibrated von Frey filaments (range, 0.44–147.0 mN). […]
Wave forms of action potentials evoked by mechanical stimuli were saved on an oscilloscope for comparison of shape and profile. […] Action potentials were discriminated and counted off-line using a spike histogram software extension. […] All data was also analyzed in a blinded manner.

CFA-injected rats = experiment: CFA-induced hypersensitivity (rearing on prickly floor); format: in vivo, rat; conditions: 100 mg/kg p.o.; p > 0.05 vs CFA vehicle ([…] s)
Protocol: Rats were habituated in a reversed light cycle room for at least 1 week and to the testing room for 1 h prior to dosing. […] Twenty-one hours after the CFA injection, animals were treated (p.o.) with vehicle (5 % Tween 80 in OraPlus®) or TRPM8 antagonist. Two hours after drug dosing (23 h after CFA injection), rats were placed in the same Kinder Scientific open field boxes as described above but with customized prickly floor inserts placed inside. Rearing time and rearing counts were measured for 60 min.

IC50 (rat TRPV3): > 25 µM
SMILES: C[C@H](NC(=O)N1CCc2cccnc2[C@H]1c1ccc(C(F)(F)F)cc1)C(F)(F)F [AMG2850, (R)-8-(4-(trifluoromethyl)phenyl)-N-((S)-1,1,1-trifluoropropan-2-yl)-5,6-dihydro-1,7-naphthyridine-7(8H)-carboxamide]
effect on mechanical firing in C fibers (cutaneous C fibers): no significant effect | rearing time, CFA model (CFA-injected rats): 157 ± 25 s
